This passage reports IC50 results from US8993586B2, “N1/N2-lactam acetyl-CoA carboxylase inhibitors” (Pfizer Inc., priority 2010, dated 2015).

For experiment [1], the target named is recombinant human ACC2 (rhACC2) (Homo sapiens (Human), UniProt O00763). The experiment in a line: recombinant hACC2 Transcreener ADP detection FP assay. Format: biochemical. The conditions noted are these: 50 uM ATP, 50 min at 25° C. As for the experimental part: (§1) For example direct inhibition of ACC activity, for the compound of Formula (I) was determined using preparations of recombinant human ACC1 (rhACC1) and recombinant human ACC2 (rhACC2).
recombinant human ACC2 (rhACC2), sequence (O00763 whole entry V2141I): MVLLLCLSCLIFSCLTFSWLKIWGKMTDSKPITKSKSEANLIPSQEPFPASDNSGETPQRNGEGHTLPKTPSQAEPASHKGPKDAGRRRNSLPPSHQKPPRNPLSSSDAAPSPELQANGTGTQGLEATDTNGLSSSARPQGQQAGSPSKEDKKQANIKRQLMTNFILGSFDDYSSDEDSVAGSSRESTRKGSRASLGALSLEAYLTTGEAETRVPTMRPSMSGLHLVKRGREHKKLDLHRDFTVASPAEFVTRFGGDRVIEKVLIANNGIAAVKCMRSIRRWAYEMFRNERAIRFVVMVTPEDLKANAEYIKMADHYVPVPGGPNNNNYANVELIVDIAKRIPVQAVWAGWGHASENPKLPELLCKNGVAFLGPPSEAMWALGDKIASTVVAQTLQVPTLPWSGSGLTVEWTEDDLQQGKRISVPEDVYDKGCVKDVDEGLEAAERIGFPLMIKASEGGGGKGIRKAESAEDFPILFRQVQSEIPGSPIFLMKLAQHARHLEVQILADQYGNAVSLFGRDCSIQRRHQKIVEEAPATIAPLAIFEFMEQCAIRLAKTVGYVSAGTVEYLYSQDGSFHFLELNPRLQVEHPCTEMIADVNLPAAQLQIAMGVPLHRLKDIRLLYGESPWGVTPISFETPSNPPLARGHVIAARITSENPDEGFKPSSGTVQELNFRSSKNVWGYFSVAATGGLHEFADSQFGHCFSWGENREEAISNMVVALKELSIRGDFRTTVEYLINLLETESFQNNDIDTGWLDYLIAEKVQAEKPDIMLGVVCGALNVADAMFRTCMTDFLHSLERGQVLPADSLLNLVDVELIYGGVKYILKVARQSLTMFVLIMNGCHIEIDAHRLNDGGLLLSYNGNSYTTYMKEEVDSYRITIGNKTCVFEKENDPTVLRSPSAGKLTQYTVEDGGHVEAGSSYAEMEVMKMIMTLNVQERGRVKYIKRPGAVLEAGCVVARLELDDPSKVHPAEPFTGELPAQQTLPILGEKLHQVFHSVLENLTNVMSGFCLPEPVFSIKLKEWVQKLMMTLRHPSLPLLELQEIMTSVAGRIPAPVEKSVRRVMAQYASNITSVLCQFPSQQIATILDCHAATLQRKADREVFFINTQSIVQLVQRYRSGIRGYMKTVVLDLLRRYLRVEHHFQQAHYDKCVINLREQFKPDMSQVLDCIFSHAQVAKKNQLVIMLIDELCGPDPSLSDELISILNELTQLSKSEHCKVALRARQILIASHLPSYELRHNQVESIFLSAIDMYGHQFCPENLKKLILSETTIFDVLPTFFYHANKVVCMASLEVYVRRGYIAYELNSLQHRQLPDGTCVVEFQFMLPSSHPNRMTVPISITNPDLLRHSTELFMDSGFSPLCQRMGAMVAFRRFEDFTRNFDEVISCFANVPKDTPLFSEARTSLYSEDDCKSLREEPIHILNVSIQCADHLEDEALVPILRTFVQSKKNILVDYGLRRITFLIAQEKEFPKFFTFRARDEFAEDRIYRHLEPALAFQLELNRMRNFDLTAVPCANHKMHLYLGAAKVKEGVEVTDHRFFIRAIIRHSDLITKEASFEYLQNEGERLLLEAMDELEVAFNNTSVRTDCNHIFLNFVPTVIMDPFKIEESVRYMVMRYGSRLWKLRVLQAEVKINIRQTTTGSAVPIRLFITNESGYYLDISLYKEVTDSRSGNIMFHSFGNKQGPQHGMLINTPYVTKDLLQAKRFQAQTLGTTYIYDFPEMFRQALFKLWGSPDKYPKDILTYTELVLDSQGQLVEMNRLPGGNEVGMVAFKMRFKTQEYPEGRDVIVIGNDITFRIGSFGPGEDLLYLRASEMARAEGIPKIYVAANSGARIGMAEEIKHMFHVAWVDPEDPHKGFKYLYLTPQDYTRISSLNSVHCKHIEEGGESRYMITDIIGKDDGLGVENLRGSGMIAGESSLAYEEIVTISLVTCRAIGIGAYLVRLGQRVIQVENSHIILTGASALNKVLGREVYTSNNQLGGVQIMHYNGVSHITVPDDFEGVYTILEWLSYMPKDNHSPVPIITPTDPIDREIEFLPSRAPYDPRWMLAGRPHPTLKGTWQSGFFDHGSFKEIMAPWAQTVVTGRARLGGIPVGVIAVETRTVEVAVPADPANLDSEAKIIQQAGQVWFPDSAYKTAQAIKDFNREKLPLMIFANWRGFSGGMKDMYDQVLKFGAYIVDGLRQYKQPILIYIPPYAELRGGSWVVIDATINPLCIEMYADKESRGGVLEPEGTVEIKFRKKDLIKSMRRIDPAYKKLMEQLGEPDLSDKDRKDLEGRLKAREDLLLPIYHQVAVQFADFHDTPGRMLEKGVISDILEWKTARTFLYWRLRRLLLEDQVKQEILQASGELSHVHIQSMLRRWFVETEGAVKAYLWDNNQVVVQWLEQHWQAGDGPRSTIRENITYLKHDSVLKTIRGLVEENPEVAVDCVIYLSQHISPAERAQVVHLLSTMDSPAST
[3] Preparation of rhACC2. Human ACC2 inhibition was measured using purified recombinant human ACC2 (hrACC2). Briefly, a full length Cytomax clone of ACC2 was purchased from Cambridge Bioscience Limited and was sequenced and subcloned into PCDNA5 FRT TO-TOPO (Invitrogen, Carlsbad, Calif.). The ACC2 was expressed in CHO cells by tetracycline induction and harvested in 5 liters of DMEM/F12 with glutamine, biotin, hygromycin and blasticidin with 1 μg/mL tetracycline (Invitrogen, Carlsbad, Calif.). The conditioned medium containing ACC2 was then applied to a Softlink Soft Release Avidin column (Promega, Madison, Wis.) and eluted with 5 mM biotin. […] The purified ACC2 was dialyzed in 50 mM Tris, 200 mM NaCl, 4 mM DTT, 2 mM EDTA, and 5% glycerol. […] For measurement of ACC2 activity and assessment of ACC2 inhibition, test compounds were dissolved in DMSO and added to the rhACC2 enzyme as a 5× stock with a final DMSO concentration of 1%.
[4] Measurement of human ACC2 inhibition. hACC2 was assayed in a Costar #3676 (Costar, Cambridge, Mass.) 384-well plate using the Transcreener ADP detection FP assay kit (Bellbrook Labs, Madison, Wis.) using the manufacturer's recommended conditions for a 50 uM ATP reaction. The final conditions for the assay were 50 mM HEPES, pH 7.2, 5 mM MgCl2, 5 mM tripotassium citrate, 2 mM DTT, 0.1 mg/mL BSA, 30 μM acetyl-CoA, 50 μM ATP, and 8 mM KHCO3 Typically, a 10 μl reaction was run for 50 min at 25° C., and 10 μl of Transcreener stop and detect buffer was added and the combination incubated at room temp for an additional 1 hour. The data was acquired on an Envision Fluorescence reader (PerkinElmer) using a 620 excitation Cy5 FP general dual mirror, 620 excitation Cy5 FP filter, 688 emission (S) and a 688 (P) emission filter.

Experiment [2] has as its target recombinant human ACC1 (rhACC1) (Homo sapiens (Human), UniProt Q13085). Nature of the experiment: recombinant hACC1 Transcreener ADP detection FP assay. Format: biochemical. The note with it: 50 μM ATP, 120 min at 25° C. The procedure:
as §1
[1] Preparation of rhACC1. Two liters of SF9 cells, infected with recombinant baculovirus containing full length human ACC1 cDNA, were suspended in ice-cold lysis buffer (25 mM Tris, pH 7.5; 150 mM NaCl; 10% glycerol; 5 mM imidazole (EMD Bioscience; Gibbstown, N.J.); 2 mM TCEP (BioVectra; Charlottetown, Canada); Benzonase nuclease (10000 U/100 g cell paste; Novagen; Madison, Wis.); EDTA-free protease inhibitor cocktail (1 tab/50 mL; Roche Diagnostics; Mannheim, Germany). Cells were lysed by 3 cycles of freeze-thaw and centrifuged at 40,000×g for 40 minutes (4° C.). Supernatant was directly loaded onto a HisTrap FF crude column (GE Healthcare; Piscataway, N.J.) and eluted with an imidazole gradient up to 0.5 M over 20 column volumes (CV). ACC1-containing fractions were pooled and diluted 1:5 with 25 mM Tris, pH 7.5, 2 mM TCEP, 10% glycerol and direct loaded onto a CaptoQ (GE Healthcare) column and eluted with an NaCl gradient up to 1 M over 20 CV's. Phosphate groups were removed from purified ACC1 by incubation with lambda phosphatase (100 U/10 μM target protein; New England Biolabs; Beverly, Mass.) for 14 hours at 4° C.; okadaic acid was added (1 μM final concentration; Roche Diagnostics) to inhibit the phosphatase. Purified ACC1 was exchanged into 25 mM Tris, pH 7.5, 2 mM TCEP, 10% glycerol, 0.5 M NaCl by 6 hour dialysis at 4° C. Aliquots were prepared and frozen at −80° C.
[2] Measurement of rhACC1 inhibition. hACC1 was assayed in a Costar #3676 (Costar, Cambridge, Mass.) 384-well plate using the Transcreener ADP detection FP assay kit (Bellbrook Labs, Madison, Wis.) using the manufacturer's recommended conditions for a 50 μM ATP reaction. The final conditions for the assay were 50 mM HEPES, pH 7.2, 10 mM MgCl2, 7.5 mM tripotassium citrate, 2 mM DTT, 0.1 mg/mL BSA, 30 μM acetyl-CoA, 50 μM ATP, and 10 mM KHCO3 Typically, a 10 μl reaction was run for 120 min at 25° C., and 10 μl of Transcreener stop and detect buffer was added and the combination incubated at room temp for an additional 1 hour. The data was acquired on a Envision Fluorescence reader (PerkinElmer) using a 620 excitation Cy5 FP general dual mirror, 620 excitation Cy5 FP filter, 688 emission (S) and a 688 (P) emission filter.

With `CNc1nccc2cc(C(=O)N3CCC4(CC3)Cc3cn(C(C)(C)C)nc3C(=O)N4)ccc12` [Example 91], the results for the IC50 in experiment [1] and in experiment [2] were 51 nM and 240 nM, respectively.

Regarding `COc1nccc2cc(C(=O)N3CCC4(CC3)Cc3cn(C(C)(C)C)nc3C(=O)N4)ccc12` [Example 92], the values for the IC50 in experiment [1] and in experiment [2] were 55 nM and 244 nM, respectively.

As to `CNc1n[nH]c2ccc(C(=O)N3CCC4(CC3)Cc3cn(C(C)(C)C)nc3C(=O)N4)cc12` [Example 93], the IC50 in experiment [1] stood at 8.6 nM; in experiment [2], 65 nM.

Consider `CC(C)(C)n1cc2c(n1)C(=O)NC1(CCN(C(=O)c3ccc4cc(N)ncc4c3)CC1)C2` [Example 94], for which the IC50 was 23 nM in experiment [1] and 130 nM in experiment [2].

With `CNc1cc2ccc(C(=O)N3CCC4(CC3)Cc3cn(C(C)(C)C)nc3C(=O)N4)cc2cn1` [Example 95], the IC50 in experiment [1] came to 9.2 nM; in experiment [2] it was 105 nM.

As to `CC(C)(C)n1cc2c(n1)C(=O)NC1(CCN(C(=O)c3cnc4[nH]cc(Cl)c4c3)CC1)C2` [Example 96], the 50% inhibitory concentration (IC50) in experiment [1] came out at 7.1 nM; in experiment [2], 62 nM.

In the case of `COc1cc(C(=O)N2CCC3(CC2)Cc2cn(C(C)(C)C)nc2C(=O)N3)cc2cn[nH]c12` [Example 99, 2′-tert-butyl-1-(7-methoxy-1H-indazole-5-carbonyl)-4′,6′-dihydrospiro[piperidine-4,5′-pyrazolo[3,4-c]pyridin]-7′(2′H)-one], the IC50 in experiment [1] was determined as 5.6 nM; in experiment [2], 23 nM.

For `CC(C)(C)n1cc2c(n1)C(=O)NC1(CCN(C(=O)c3ccc4ccnc(N)c4c3)CC1)C2` [Example 100, 1-(1-aminoisoquinoline-7-carbonyl)-2′-tert-butyl-4′,6′-dihydrospiro[piperidine-4,5′-pyrazolo[3,4-c]pyridin]-7′(2′H)-one], the IC50 turned out to be 21 nM in experiment [1] and 62 nM in experiment [2].

For `CC(C)(C)n1cc2c(n1)C(=O)NC1(CCN(C(=O)c3ccc4c(N)nccc4c3)CC1)C2` [Example 101, 1-(1-aminoisoquinoline-6-carbonyl)-2′-tert-butyl-4′,6′-dihydrospiro[piperidine-4,5′-pyrazolo[3,4-c]pyridin]-7′(2′H)-one], the half-maximal inhibitory concentration (IC50) in experiment [1] came to 26 nM; in experiment [2] it was 160 nM.

As to `CN(C)c1nccc2ccc(C(=O)N3CCC4(CC3)Cc3cn(C(C)(C)C)nc3C(=O)N4)cc12` [Example 103, 2′-tert-butyl-1-(1-(dimethylamino)isoquinoline-7-carbonyl)-4′,6′-dihydrospiro[piperidine-4,5′-pyrazolo[3,4-c]pyridin]-7′(2′H)-one], the IC50 worked out at 8.9 nM in experiment [1] and 73 nM in experiment [2].

Take `CC(C)(C)n1cc2c(n1)C(=O)NC1(CCN(C(=O)c3ccc4ccc(Cl)nc4c3)CC1)C2` [Example 104, 2′-tert-butyl-1-(2-chloroquinoline-7-carbonyl)-4′,6′-dihydrospiro[piperidine-4,5′-pyrazolo[3,4-c]pyridin]-7′(2′H)-one]: the results for the IC50 in experiment [1] and in experiment [2] were 16 nM and 89 nM, respectively.

On to `CC(C)(C)n1cc2c(n1)C(=O)NC1(CCN(C(=O)c3ccc4ccc(NC5CC5)nc4c3)CC1)C2` [Example 106], for which the IC50 in experiment [1] amounted to 2.6 nM; in experiment [2] it was 7.5 nM.

Consider `CC(C)Nc1ccc2ccc(C(=O)N3CCC4(CC3)Cc3cn(C(C)(C)C)nc3C(=O)N4)cc2n1` [Example 107], for which the IC50 was 2.2 nM in experiment [1] and 6.1 nM in experiment [2].

Take `CCN(C)c1ccc2ccc(C(=O)N3CCC4(CC3)Cc3cn(C(C)(C)C)nc3C(=O)N4)cc2n1` [Example 108]: the figures for the IC50 in experiment [1] and in experiment [2] were 2.4 nM and 15 nM, respectively.

As for `CC(C)(C)n1cc2c(n1)C(=O)NC1(CCN(C(=O)c3ccc4ccc(NC5CCC5)nc4c3)CC1)C2` [Example 109], the IC50 in experiment [1] is 1 nM; in experiment [2], 3.4 nM.

In the case of `COCCNc1ccc2ccc(C(=O)N3CCC4(CC3)Cc3cn(C(C)(C)C)nc3C(=O)N4)cc2n1` [Example 111], the IC50 was determined as 3.3 nM in experiment [1] and 27 nM in experiment [2].

Consider `CCNc1ccc2ccc(C(=O)N3CCC4(CC3)Cc3cn(C(C)(C)C)nc3C(=O)N4)cc2n1` [Example 112], for which the values for the IC50 in experiment [1] and in experiment [2] were 1.8 nM and 8.9 nM, respectively.

With `CC(C)(C)n1cc2c(n1)C(=O)NC1(CCN(C(=O)c3ccc4ccc(NC5COC5)nc4c3)CC1)C2` [Example 113], the 50% inhibitory concentration (IC50) in experiment [1] is 44 nM; in experiment [2], 507 nM.

For `Cc1n[nH]c2c(C)cc(C(=O)N3C4CCC3CC3(Cc5cn(C(C)(C)C)nc5C(=O)N3)C4)cc12` (stereo not drawn) [Example 114], the IC50 was 612 nM in experiment [1] and 4820 nM in experiment [2].

`CC(C)(C)n1cc2c(n1)C(=O)NC1(CCN(C(=O)c3ccc4ccnc(NC5CC5)c4c3)CC1)C2` [Example 115]: the IC50 in experiment [1] turned out to be 2.9 nM; in experiment [2], 29 nM.

Take `CC(C)Nc1nccc2ccc(C(=O)N3CCC4(CC3)Cc3cn(C(C)(C)C)nc3C(=O)N4)cc12` [Example 116]: the IC50 in experiment [1] was 4.7 nM; in experiment [2] it was 20 nM.

For `CCN(C)c1nccc2ccc(C(=O)N3CCC4(CC3)Cc3cn(C(C)(C)C)nc3C(=O)N4)cc12` [Example 117], the IC50 was determined as 54 nM in experiment [1] and 332 nM in experiment [2].

Regarding `CC(C)(C)n1cc2c(n1)C(=O)NC1(CCN(C(=O)c3ccc4ccnc(NC5CCC5)c4c3)CC1)C2` [Example 118], the IC50 was determined as 2.7 nM in experiment [1] and 17 nM in experiment [2].

In the case of `CCCNc1nccc2ccc(C(=O)N3CCC4(CC3)Cc3cn(C(C)(C)C)nc3C(=O)N4)cc12` [Example 119], the half-maximal inhibitory concentration (IC50) in experiment [1] is 2.5 nM; in experiment [2], 24 nM.

For the molecule `COCCNc1nccc2ccc(C(=O)N3CCC4(CC3)Cc3cn(C(C)(C)C)nc3C(=O)N4)cc12` [Example 120], the figures for the IC50 in experiment [1] and in experiment [2] were 6.1 nM and 47 nM, respectively.

As for `CCNc1nccc2ccc(C(=O)N3CCC4(CC3)Cc3cn(C(C)(C)C)nc3C(=O)N4)cc12` [Example 121], the IC50 is 2.7 nM in experiment [1] and 17 nM in experiment [2].

With `CC(C)(C)n1cc2c(n1)C(=O)NC1(CCN(C(=O)c3ccc4ccnc(NC5COC5)c4c3)CC1)C2` [Example 122], the IC50 in experiment [1] amounted to 77 nM; in experiment [2] it was 494 nM.

With `CC(C)(C)Nc1nccc2ccc(C(=O)N3CCC4(CC3)Cc3cn(C(C)(C)C)nc3C(=O)N4)cc12` [Example 123, 2′-(tert-butyl)-1-(1-(tert-butylamino)isoquinoline-7-carbonyl)-4′,6′-dihydrospiro[piperidine-4,5′-pyrazolo[3,4-c]pyridin]-7′(2′H)-one], the IC50 in experiment [1] was 6.3 nM; in experiment [2] it was 78 nM.

With `CC(C)(C)n1cc2c(n1)C(=O)NC1(CCN(C(=O)c3ccc4ccc(NCC(F)(F)F)nc4c3)CC1)C2` [Example 124], the IC50 in experiment [1] worked out at 1.72 nM; in experiment [2] it was 6.5 nM.

As to `CC(F)(F)CNc1ccc2ccc(C(=O)N3CCC4(CC3)Cc3cn(C(C)(C)C)nc3C(=O)N4)cc2n1` [Example 125], the IC50 came out at 1.7 nM in experiment [1] and 9 nM in experiment [2].

Usually IC50 stands for the concentration at which inhibition is half-maximal.
